Source: patent publication US6087376A (priority 1998, dated 2000)
“And” between values parts separate entries of the source, which are not always exact repeats. Equal values may be shown once. “Also recorded” adds a separate entry of the source.

Key:
[1] = test system: tobacco smoking cessation; settings: short-term use as smoking deterrent; cited from earlier work
[2] = target: T1, plasma membrane DA transporter (rat striatal synaptosomes) (Rattus norvegicus, UniProt P23977); assay: [3H]DA uptake assay, striatal synaptosomal preparation; type: biochemical; settings: read-out: IC50, inhibition of [3H]DA uptake into synaptosomes
T1 construct: from tissue; host or cells: rat striatum, synaptosomes
Description: The homogenate was centrifuged at 2,000×g for 10 min at 4° C. […] The final protein concentration was 400 μg/mL. The assay was performed in duplicate in a total volume of 500 μL. […] The incubation continued for 10 min at 34° C. The reaction was terminated by the addition of 3 mL cold assay buffer (without 1 mM catechol). Samples were rapidly filtered through a Whatman GF/B filter using a Brandel cell harvester (model MP-43 RS, Biochemical Research and Development Laboratories, Inc., Gaithersburg, Md.) and the filter was subsequently washed 3 times with 4 mL of cold assay buffer containing 1 mM catechol. Filters were previously soaked for 2 hrs in the cold assay buffer containing 1 mM catechol. […] Filters were placed into scintillation vials, 10 mL of scintillation cocktail was added and radioactivity was determined by scintillation spectrometry.
Inhibition of synaptosomal and vesicular [^3 H]DA uptake were analyzed by repeated-measures, one-way ANOVA, and by an iterative nonlinear least-squares curve-fitting program (GraphPAD-PRIZM; GraphPAD, San Diego, Calif.) to obtain IC50 values. Dunnett's post hoc test was used to compare treatment means to a single control mean. Also, Duncan's New Multiple Range Test or Fisher's LSD post hoc analysis were used to compare pairs of treatment means. […]

[3] = test system: conditioned place preference in rats; settings: rat, in vivo; cited from earlier work
anesthetized rats = settings: urethane and pentobarbital anesthetized rats; cited from earlier work
[4] = test system: rat striatal synaptic vesicles; assay: [3H]DA release from striatal synaptic vesicles preloaded with [3H]DA; type: biochemical
Description: The homogenate was then centrifuged at 2,000×g for 10 min at 4° C. and the resulting supernatant was centrifuged at 10,000×g for 30 min at 4° C. Synaptosomes (buffy coat) were separated from the underlying mitochondria and cellular debris (reddish pellet) by gentle swirling in 2 mL of 0.32 M sucrose. The enriched synaptosome fraction (2.0 mL) was subjected to osmotic shock by addition of 7 mL distilled H2 0 and was homogenized with 5 up and down strokes of the TEFLON pestle. The osmolarity was restored by the addition of 900 μL of 0.25 M HEPES and 900 μL of 1.0 M neutral potassium-tatrate buffer (pH 7.5) followed by a 20 min centrifugation (20,000×g at 4° C.). The supernatant was then centrifuged for 60 min (55,000×g at 4° C.).
The final vesicle pellet from a pool of striata from three rats was resuspended in 3 mL of release assay buffer (in mM: 25 HEPES, 100 L-(+)-tartaric acid dipotassium salt, 0.05 EGTA, 0.10 EDTA, 2 Mg^2+ -ATP, and 1.7 ascorbic acid, pH 7.4) and then incubated with [^3 H]DA (0.3 μM) for 8 min at 37° C. […] [^3 H]DA efflux represents the net result of events, i.e., release and reuptake. […] The reaction was terminated by addition of 2.5 mL of ice-cold assay buffer containing 2 mM MgSO4. Samples were rapidly filtered through Whatman GF/F filters using the Brandel cell harvester.
The amount of drug-induced [^3 H]DA release from synaptic vesicles was calculated by subtracting the amount of tritium remaining in the drug-exposed samples from that remaining in the control samples (in the absence of drug). The amount of drug-induced [^3 H]DA release was then divided by the amount of tritium remaining in the control samples and was expressed as a percentage of control.
Concentration-response and kinetic data were analyzed by repeated-measures one-way ANOVA and between-group one-way ANOVA, respectively. When appropriate, Fisher's least significant difference post hoc test was used to determine significant differences between treatment means. IC50 and EC50 values were obtained by an iterative nonlinear least-squarescurve-fitting program (GraphPAD-PRIZM: GraphPAD, San Diego, Calif., U.S.A.) for one-site competition and sigmoidal concentration response, respectively. The t1/2 was obtained by an iterative nonlinear least-squares curve-fitting program for one-phase decay. KD and Bmax values were obtained by Scatchard analysis using an iterative linear least-squares curve-fitting program.

[5] = test system: rat striatal slices preloaded with [3H]DA; assay: Mecamylamine antagonism of lobeline-evoked [3H]overflow from rat striatal slices; type: cell-based; parameters: lobeline-evoked total [3H]overflow: unit not given here
[6] = test system: tachycardia and hypertension; settings: in vivo; cited from earlier work
[7] = test system: nicotinic receptors in mouse brain; settings: in vivo; cited from earlier work
[8] = test system: mouse striatal synaptosomes; settings: cited from earlier work
[9] = target: central nicotinic receptors; settings: read-out: Ki, displacement of [3H]nicotine binding; cited from earlier work

T1 sequence (P23977 whole entry): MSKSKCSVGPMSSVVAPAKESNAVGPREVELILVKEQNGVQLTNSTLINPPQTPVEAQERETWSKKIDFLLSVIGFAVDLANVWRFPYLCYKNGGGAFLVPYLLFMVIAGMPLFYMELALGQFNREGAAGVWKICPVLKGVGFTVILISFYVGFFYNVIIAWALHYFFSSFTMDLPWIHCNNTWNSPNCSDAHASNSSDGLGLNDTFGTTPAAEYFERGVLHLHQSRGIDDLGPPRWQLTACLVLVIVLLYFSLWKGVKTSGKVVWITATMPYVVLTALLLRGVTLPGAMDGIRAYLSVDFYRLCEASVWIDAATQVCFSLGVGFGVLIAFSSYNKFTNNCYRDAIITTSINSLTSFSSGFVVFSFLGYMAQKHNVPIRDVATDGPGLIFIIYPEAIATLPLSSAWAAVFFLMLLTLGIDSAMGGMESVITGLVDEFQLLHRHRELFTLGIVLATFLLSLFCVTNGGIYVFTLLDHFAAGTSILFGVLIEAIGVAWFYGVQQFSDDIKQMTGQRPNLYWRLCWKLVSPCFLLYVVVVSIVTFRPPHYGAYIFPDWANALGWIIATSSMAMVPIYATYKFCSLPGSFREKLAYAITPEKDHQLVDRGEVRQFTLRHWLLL

For CN1[C@@H](CC(=O)c2ccccc2)CCC[C@H]1C[C@H](O)c1ccccc1 [Lobeline, 2-[G-(β-hydroxyphenethyl)-1-methyl-2-piperidyl]-acetophenone], the acute toxicity [1] is listed as “nausea, severe heartburn and dizziness”, the IC50 [2] is listed as 80 ± 12 µM and the conditioned place preference [3] is listed as “does not produce conditioned place preference; also recorded: does not increase locomotor activity (Stolerman et al., 1995) or produce conditioned place preference”. The cardiovascular effects (anesthetized rats) was “bradycardia and hypotension”, the “lowest concentration to evoke [3H]DA release from vesicles” value ([4]; 8 min, 37° C.) was 10 µM and the EC50 ([4]; 8 min, 37° C., read-out: EC50, evoked [3H]DA release from synaptic vesicles) was 25.3 µM and 25 µM. The “t1/2 of [3H]DA efflux from vesicles” value ([4]; drug at 10 times the EC50) was 1.58 ± 0.09 min, the “lobeline-evoked total [3H]overflow” value ([5]; lobeline 0.1 μM, mecamylamine 0 μM) was 0.6 ± 0.4 and the “lobeline-evoked total [3H]overflow” value ([5]; lobeline 0.1 μM, mecamylamine 1 μM) was 0.9 ± 0.5. The “lobeline-evoked total [3H]overflow” value ([5]; lobeline 0.1 μM, mecamylamine 10 μM) was 0.8 ± 0.3, the “lobeline-evoked total [3H]overflow” value ([5]; lobeline 0.1 μM, mecamylamine 100 μM) was 0.5 ± 0.4 and the “lobeline-evoked total [3H]overflow” value ([5]; lobeline 1 μM, mecamylamine 0 μM) was 2.0 ± 0.6. The “lobeline-evoked total [3H]overflow” value ([5]; lobeline 1 μM, mecamylamine 1 μM) was 4.9 ± 1.8, the “lobeline-evoked total [3H]overflow” value ([5]; lobeline 1 μM, mecamylamine 10 μM) was 2.4 ± 0.5 and the “lobeline-evoked total [3H]overflow” value ([5]; lobeline 1 μM, mecamylamine 100 μM) was 0.7 ± 0.1. The “lobeline-evoked total [3H]overflow” value ([5]; lobeline 3 μM, mecamylamine 0 μM) was 10.3 ± 0.8, the “lobeline-evoked total [3H]overflow” value ([5]; lobeline 3 μM, mecamylamine 1 μM) was 10.8 ± 1.4 and the “lobeline-evoked total [3H]overflow” value ([5]; lobeline 3 μM, mecamylamine 10 μM) was 8.2 ± 1.5. For the same molecule, the “lobeline-evoked total [3H]overflow” value ([5]; lobeline 3 μM, mecamylamine 100 μM) was 6.5 ± 0.9, the “lobeline-evoked total [3H]overflow” value ([5]; lobeline 10 μM, mecamylamine 0 μM) was 31.9 ± 2.2 and the “lobeline-evoked total [3H]overflow” value ([5]; lobeline 10 μM, mecamylamine 1 μM) was 32.5 ± 1.0. For the same molecule, the “lobeline-evoked total [3H]overflow” value ([5]; lobeline 10 μM, mecamylamine 10 μM) was 41.0 ± 6.2, the “lobeline-evoked total [3H]overflow” value ([5]; lobeline 10 μM, mecamylamine 100 μM) was 20.0 ± 2.0 and the “lobeline-evoked total [3H]overflow” value ([5]; lobeline 100 μM, mecamylamine 0 μM) was 185.0 ± 12. For the same molecule, the “lobeline-evoked total [3H]overflow” value ([5]; lobeline 100 μM, mecamylamine 1 μM) was 180.0 ± 47.6, the “lobeline-evoked total [3H]overflow” value ([5]; lobeline 100 μM, mecamylamine 10 μM) was 179.5 ± 12.2 and the “lobeline-evoked total [3H]overflow” value ([5]; lobeline 100 μM, mecamylamine 100 μM) was 160.4 ± 30.2. The “inhibition of lobeline-evoked [3H]overflow by mecamylamine” value ([5]; mecamylamine 1-100 μM, lobeline 0.1-100 μM) was “not inhibited by mecamylamine”, the cardiovascular effects [6] was “tachycardia and hypertension” and the “number of nicotinic receptors after chronic treatment” value [7] was “did not increase the number of nicotinic receptors”. The “DA release from superfused striatal synaptosomes” value [8] was “increase DA release” and the Ki [9] was 0.005 to 0.03 µM.
